According to patent US20200179488A1, “Secretin Receptor Agonists to Treat Diseases or Disorders of Energy Homeostasis” (Technische Universität München, priority 2016, published 2020):

Tested on: primary brown adipocytes from UCP1 knockout mice
Assay: Microplate respirometry (oxygen consumption rate) in primary brown adipocytes from UCP1 knockout mice
Format: cell-based, Mus musculus
Description: For culturing primary adipocytes male 129S1/SvImJ mice ([…] or UCP1-KO mice and wildtype littermates) at the age of 5-6 weeks were used for the dissection of inguinal and epidydimal white adipose tissue and interscapular brown adipose tissue depots. The tissue was carefully minced and treated with collagenase for 45 min at 37° C. The homogenate was filtered through a 250 μm nylon mesh and centrifuged at 500 g to collect the stromal vascular fraction (SVF). The SVF cell pellet was rinsed and seeded into XF96 V3-PS cell culture microplate (Seahorse Bioscience). After reaching confluency, induction medium containing 10% fetal bovine serum (FBS), 0.5 mM isobutylmethylxanthine, 125 nM indomethacin, 1 mM dexamethasone, 850 nM insulin and 1 nM T3 was added. After 2 days of induction, cells were maintained in differentiation media (10% FBS, 850 nM insulin and 1 nM T3). Medium was changed every two days. Respiration was measured on day 7 of differentiation. For determination of mRNA levels cells were stimulated at the 7th day of differentiation for 6 hours with secretin (rat, Tocris, Art Nr 1919) or isoproterenol (Sigma-Aldrich, Art Nr. 16504-100MG) and harvested subsequently. Oxygen consumption rate (OCR) was measured at 37° C. using a microplate respirometer (XF96 extracellular flux analyzer, Seahorse Bioscience). At day 7, the differentiation medium was replaced with prewarmed, unbuffered assay medium (DMEM basal medium supplemented with 25 mM glucose, 2 mM sodium pyruvate, 31 mM NaCl, 2 mM GlutaMax and 15 mg/l phenol red, pH 7.4) containing 2% of essentially fatty acid free bovine serum albumin (BSA), and incubated at 37° C. in a room air incubator for 1 h. Basal respiration was measured in untreated cells. […] Maximum respiratory capacity was assessed after FCCP (Sigma-Aldrich) addition (1 μM). […] Oxygen consumption rates were calculated using the Seahorse XF-96 software. […] For induction of OCR by isoproterenol, secretin or FCCP the highest values measured after addition of the respective molecule was used. The “OCR in % of basal OCR” and “OCR in % of FCCP OCR” were calculated as follows: Method: To test whether SCT can activate thermogenesis in brown adipocytes, we measured UCP1-mediated uncoupled respiration in cultured adherent intact primary brown adipocytes, according to a protocol recently established in our lab (Li Y, Fromme T, Schweizer S, Schöttl T, Klingenspor M. EMBO Rep. 2014 October; 15(10):1069-76. doi: 10.15252/embr.201438775; […]. Meaningful respirometric measurements of UCP1-mediated thermogenesis. Biochimie. 2017 March; 134:56-61. doi: 10.1016/j.biochi.2016.12.005.). The cellular oxygen consumption rate (OCR) of primary adipocytes was determined using an XF96 Extracellular Flux Analyzer (Seahorse Bioscience). […]

secretin
induction of respiration in cells from UCP1 knockout mice (129/S1 background, FIG. 3): lacking | response of respiration in UCP1 knockout brown adipocytes (SCT 10 nM, ISO 500 nM (FIG. 10B)): did not respond
